Source: patent US20130053372A1, “5-HT RECEPTOR MODULATORS” (Cambridge Enterprise Limited, priority 2010, published 2013)
pIC50: −log10 of the molar value. Counter-ions that a name gives are not always drawn.

Legend:
rat r5-HT1B receptors = target: T1, rat r5-HT1B receptors (Rattus norvegicus, UniProt P28564); experiment: Binding affinity at rat r5-HT1B receptors, rat cerebral cortex membrane binding (RBA); settings: value in parentheses; monohydrochloride salt
T1 construct: from tissue
Description: Binding Protocol for Determination of Affinity at rat r5-HT 1B Receptors (RBA)
This binding affinity protocol was performed according to standard conditions disclosed in Eur. J. Pharmacol. 1985, 118, 1-12.

[1] = system: chronically hypoxic murine model of pulmonary arterial hypertension (PAH); experiment: Effect on development of hypoxia-induced pulmonary hypertension (haemodynamics, right ventricular hypertrophy); type: in vivo, Mice (C57B/6J); settings: mice
Description: Protocol for the Determination of the Effect on the Development of Hypoxia-Induced Pulmonary Hypertension.
Mice (C57B/6J, male, 2 months) were exposed to 14 days of hypobaric hypoxia (equivalent to 10% O2) or normoxia, as described in MacLean, M. R. et al. Circulation 2008, 117, 2928-2937 and MacLean, M. R. et al. Circulation 2004,109, 2150-2155. Mice were dosed either with vehicle (dH2O) or 82 (15 mg/kg/day) for 14 days. Haemodynamic Measurements: Heart rate, right ventricular pressure and systemic arterial pressure were measured and analysed as described in MacLean, M. R. et al. Circulation 2008, 117, 2928-2937 and MacLean, M. R. et al. Circulation 2004,109, 2150-2155. Briefly, right ventricular pressure was measured via transdiaphragmatic right heart catheterisation and systemic arterial pressure was measured via cannulation of the left common carotid artery. Lung Histology: Sagittal sections of lung were elastica-Van Gieson stained and microscopically assessed for the muscularisation of pulmonary arteries (<80 μm external diameter) in a blinded fashion as described in MacLean, M. R. et al. Circulation 2008, 117, 2928-2937 and MacLean, M. R. et al. Circulation 2004,109, 2150-2155. Remodelled arteries were confirmed by the presence of a double elastic laminae.
(§1) Lung sections from 5 mice for each group were studied. Approximately 150 arteries from each lung section (˜750 arteries in total for each group) were assessed. Right Ventricular Hypertrophy: Right ventricular hypertrophy (RVH) was assessed by weight measurement of the right ventricular free wall (RV) and left ventricle plus septum (LV+S). The ratio expressed is RV/LV+S. RVH measurements from 6 to 8 mice for each group were assessed. Myography: Small pulmonary arteries (PAs) of ˜350 μm internal diameter (i.d.) were set up on wire myographs as described in MacLean M. R. et al. J Pharmacol Exp Ther. 2005, 313, 539-548. Briefly, PAs from normoxic mice were set up at tensions equivalent to their mean in vivo right ventricular pressure (RVP) (12-15 mmHg), whereas PAs from hypoxic mice were set up at tensions equivalent to the elevated in vivo mean pressures observed after exposure to hypoxia (25-30 mmHg). After a 45-min equilibration period, the response to 50 mM KCl was determined. Cumulative response curves were constructed in the presence and absence of the antagonist which was allowed a 45-min equilibrium period before constructing the curves.
The effects of 82 on a chronically hypoxic murine model of pulmonary arterial hypertension (PAH) were assessed. Four small groups of n=3 or 4 were used. The results are illustrated in FIGS. 13-17 (see also description of figures, above).

[2] = system: intralobar pulmonary arteries from hypoxic mice; experiment: Myography of pulmonary arteries: vasoreactivity to 5-HT; set-up: species or system Mice (C57B/6J); settings: 15 mg/kg/day
Description: as §1

T1 sequence (P28564 whole entry): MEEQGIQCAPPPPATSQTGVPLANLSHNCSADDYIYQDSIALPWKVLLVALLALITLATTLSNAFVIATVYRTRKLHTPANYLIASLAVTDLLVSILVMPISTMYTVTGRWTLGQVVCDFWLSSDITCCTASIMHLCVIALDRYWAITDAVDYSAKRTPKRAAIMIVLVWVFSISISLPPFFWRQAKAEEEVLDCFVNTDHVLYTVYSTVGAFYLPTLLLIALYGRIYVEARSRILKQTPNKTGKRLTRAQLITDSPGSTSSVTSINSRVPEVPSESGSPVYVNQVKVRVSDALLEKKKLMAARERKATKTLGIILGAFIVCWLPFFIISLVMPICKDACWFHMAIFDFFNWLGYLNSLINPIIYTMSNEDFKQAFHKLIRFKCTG

With CN1CCN(c2nc(N3CCN(c4ccccc4)C3=O)cc3ccoc23)CC1 [Example 82, 1-(7-(4-Methylpiperazin-1-yl)furo[2,3-c]pyridin-5-yl)-3-phenylimidazolidin-2-one hydrochloride] the pIC50 (rat r5-HT1B receptors) was 6.96, the “effect on heart rate (HR)” value ([1]; 15 mg/kg/day) was “no significant effect” and the “effect on mean systemic arterial pressure (mSAP)” value ([1]; 15 mg/kg/day) was “no significant effect”. The “hypoxia-induced increases in systolic right ventricular pressure (sRVP)” value ([1]; 15 mg/kg/day for 14 days, hypobaric hypoxia) was “significantly attenuated”, the “hypoxia-induced right ventricular hypertrophy (RVH)” value ([1]; 15 mg/kg/day for 14 days, hypobaric hypoxia, RV/LV+S) was “significantly attenuated” and the “effect on the increase in contractility to 5HT in intralobar pulmonary arteries from hypoxic mice” value [2] was “no effect”.
